From patent US5411984A, “Water soluble analogs and prodrugs of taxol” (Virginia Tech Intellectual Properties, Inc., priority 1992, dated 1995)

Columns and labels:
[1] = cited from earlier work
[2] = test system: P-388; conditions: cited from earlier work
[3] = test system: drug-refractory ovarian cancer; conditions: in vivo; cited from earlier work
[4] = test system: metastatic breast cancer; conditions: in vivo; cited from earlier work
[5] = Cremophor EL diluent, without prolonged infusion and premedication with antiallergic drugs; cited from earlier work
[6] = test system: tubulin; conditions: cited from earlier work
[7] = Relative solubility by the 1-octanol and water partition method (UV absorption at 228 nm), taxol = 1
Experimental: In separate experiments, taxol derivative 4 and 2'-succinyl taxol (R=NaO2 CCH2 CH2 CO2) were dissolved in a mildly basic aqueous solution.
*Solubilities were determined by using the 1octanol and water partition
method.Sample concentrations in water were determined by UV absorptions a […]

[8] = Magri and Kingston; cited from earlier work
[9] = cited from earlier work; remark: listed apart in the source
[10] = Solubility in pure water; format: physicochemical
[11] = Stability in pH 5 buffer / mildly acidic aqueous solution (HPLC or TLC, onset of cloudiness); format: physicochemical; conditions: method (b): 0.5 mg in 0.1 ml EtOH and 0.9 ml pH 5 buffer, room temperature
Experimental: **Stabilities were determined in pH 5 buffer solution by one of the two
methods indicated below.
(a) 9.5 mg of sample was dissolved in 0.2 ml of EtOH and 0.2 ml of pH 5
buffer solution and let stand at room temperature. The progress of
decomposition was checked by HPLC or TLC and observation of the onset of
(b) 0.5 mg of sample was dissolved in 0.1 ml of EtOH and 0.9 ml of pH 5
buffer solution, the other conditions were the same as in (a) above. All
samples were stable under these conditions for at least 24 hours. No
hydrolysis was detectable by HPLC or TLC during this time period.

CC(=O)O[C@H]1C(=O)[C@@]2(C)[C@H]([C@H](OC(=O)c3ccccc3)[C@]3(O)C[C@H](OC(=O)[C@H](OC(=O)CCC(=O)O)[C@@H](NC(=O)c4ccccc4)c4ccccc4)C(C)=C1C3(C)C)[C@]1(OC(C)=O)CO[C@@H]1C[C@@H]2O [Compound 2, 2'-succinyltaxol]
aqueous solubility [1]: increased water solubility | P-388 in vivo activity compared with taxol [2]: diminished

CC(=O)O[C@H]1C(=O)[C@@]2(C)[C@H]([C@H](OC(=O)c3ccccc3)[C@]3(O)C[C@H](OC(=O)[C@H](O)[C@@H](NC(=O)c4ccccc4)c4ccccc4)C(C)=C1C3(C)C)[C@]1(OC(C)=O)CO[C@@H]1C[C@@H]2O [Taxol]
clinical activity against drug-refractory ovarian cancer [3]: excellent clinical activity | clinical activity in metastatic breast cancer [4]: active drug | aqueous solubility [1]: low water solubility | allergic reactions [5]: severe allergic reactions and even death | effect on depolymerization of tubulin [6]: prevents depolymerization of the tubulin | effect on microtubule / tubulin polymer formation [6]: promotes formation of microtubules | Relative Solubility (p') [7]: 1

CC(=O)O[C@H]1C(=O)[C@@]2(C)[C@H]([C@H](OC(=O)c3ccccc3)[C@]3(O)C[C@H](OC(=O)[C@H](O[Si](C)(C)C(C)(C)C)[C@@H](NC(=O)c4ccccc4)c4ccccc4)C(C)=C1C3(C)C)[C@]1(OC(C)=O)CO[C@@H]1C[C@@H]2O [2'-(t-butyldimethylsilyl) taxol]
biological activity [8]: essentially inactive

CC(=O)O[C@H]1C(=O)[C@@]2(C)[C@H]([C@H](OC(=O)c3ccccc3)[C@]3(O)C[C@H](OC(=O)[C@H](OC(=O)CCN)[C@@H](NC(=O)c4ccccc4)c4ccccc4)C(C)=C1C3(C)C)[C@]1(OC(C)=O)CO[C@@H]1C[C@@H]2O [Compound 1, 2'-(β-alanyl)-taxol]
in vivo activity [9]: active in vivo | aqueous solubility [1]: increased water solubility

CC(=O)O[C@H]1C(=O)[C@@]2(C)[C@H]([C@H](OC(=O)c3ccccc3)[C@]3(O)C[C@H](OC(=O)[C@H](OC(=O)c4cc(C(=O)O)c(C(=O)O)cc4C(=O)O)[C@@H](NC(=O)c4ccccc4)c4ccccc4)C(C)=C1C3(C)C)[C@]1(OC(C)=O)CO[C@@H]1C[C@@H]2O [Compound 9b, Taxol 2'-(trisodium 1,2,4,5-benzenetetracarboxylate)]
solubility [10]: > 227 mg/mL | Stabilities at pH 5 [11]: > 24 h | times more water soluble than taxol ([7]; compared with taxol): more than 1500 times
